The values below come from article PMC2610419 (Chemical biology & drug design, 2006).

Common to all, as to parameters: species or system murine
Assay [1] has as its target T1, Abl SH2 domain Arg45Gln (Mus musculus, UniProt P00520, R161Q).
T1 sequence (P00520 120-220 R161Q): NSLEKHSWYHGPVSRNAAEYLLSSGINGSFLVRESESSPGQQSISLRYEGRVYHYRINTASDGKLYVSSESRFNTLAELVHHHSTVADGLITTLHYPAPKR
Put plainly: HSQC NMR titration ligand-binding assay, Arg45Gln mutant. To be noted: read-out: Affinity in high salt, 135 mM KCl.

The target in assay [2] is T2, Abl SH2 domain Arg59Gln (Mus musculus, UniProt P00520, R175Q).
T2 sequence (P00520 120-220 R175Q): T1 sequence (P00520 120-220 R161Q) with Q42R, R56Q
Kind of assay: HSQC NMR titration ligand-binding assay, Arg59Gln mutant. Conditions: for Affinity in high salt: 135 mM KCl; for Kd: read-out: Affinity in high salt, 135 mM KCl.

Assay [3] addresses T3, Abl SH2 domain Arg36Lys (Mus musculus, UniProt P00520, R152K).
T3 sequence (P00520 120-220 R152K): T1 sequence (P00520 120-220 R161Q) with R33K, Q42R
Put plainly: HSQC NMR titration ligand-binding assay, Arg36Lys mutant. To be noted: 135 mM KCl.

In assay [4] the target is T4, Abl SH2 domain (wild type) (Mus musculus, UniProt P00520).
T4 sequence (P00520 120-220): T1 sequence (P00520 120-220 R161Q) with Q42R
Put plainly: HSQC NMR titration ligand-binding assay, wild type Abl SH2 domain. Conditions: for Affinity in high salt: 135 mM KCl, HSQC titration, ± standard error.

Changes are numbered by the printed parent chain. Entries after “also recorded” stand apart in the source; their conditions may differ. Square brackets hold non-standard residues; d marks the D form. Ends that are not written are not given here. pS = N[C@@H](COP(=O)(O)O)C(=O)O A value given as a limit tells only on which side of the number the result lay.

For the compound `CCCC(=O)OC[C@H](COP(=O)(O)O[C@@H]1[C@H](O)[C@H](O)[C@@H](OP(=O)(O)O)[C@H](OP(=O)(O)O)[C@H]1O)OC(=O)CCC` [diC4-PtdIns(4,5)P2, dibutanoyl (C4) PtdIns(4,5)P2], the Kd in assay [1] was 900 ± 60 µM; in assay [2], over 10000 µM. Besides, the results for the “Affinity in high salt” value in assay [2], in assay [3] and in assay [3] (listed as PtdIns(4,5)P2) were “almost completely disrupted”, “Not detectable” and “abolished”, respectively.
Turning to `CCCCCCCC(=O)OC[C@H](COP(=O)(O)O[C@@H]1[C@H](O)[C@H](O)[C@@H](OP(=O)(O)O)[C@H](OP(=O)(O)O)[C@H]1O)OC(=O)CCCCCCC` [diC8-PtdIns(4,5)P2, dioctanoyl (C8) PtdIns(4,5)P2], in assay [4] (ratio of affinities), the “stronger affinity of the C8 over C4 form of PtdIns(4,5)P2” value is 1.6 fold.
`N[C@@H](Cc1ccc(OP(=O)(O)O)cc1)C(=O)O` [pTyr, phosphotyrosine]: the figures for the Kd in assay [1] and in assay [2] were 390 ± 13 µM and 2500 ± 200 µM, respectively. The “Affinity in high salt” value in assay [2] is “reduced to millimolar levels”; in assay [3], “abolished; also recorded: Not detectable”.
GQSSRV[pS]PSPTTY [BCR pSer354 peptide]: in assay [4], the “Affinity in high salt” value is “Not detectable”.
Still for that read-out and setting: the entry for phosphatidic acid [Phosphatidicacid] is “very weak”.
With phosphatidylserine, the “Affinity in high salt” value was “Not detectable” in assay [4] and “very weak” in assay [4] (listed as PtdSer).
